# According to the NIST ThermoML archive (doi:10.1021/je0502849):
# ± gives the expanded uncertainty stated by the source.
# Settings: Liquid, Pulse-echo method
compound,measurement,setting,value
CCCC(C)C [2-methylpentane],speed of sound,"293.15 K, 100 kPa",1064.6 ± 1.6 m/s
same,speed of sound,"293.15 K, 10000 kPa",1145.5 ± 1.5 m/s
same,speed of sound,"293.15 K, 20000 kPa",1215.4 ± 1.5 m/s
same,speed of sound,"293.15 K, 30000 kPa",1277.6 ± 1.5 m/s
same,speed of sound,"293.15 K, 40000 kPa",1334.9 ± 1.5 m/s
same,speed of sound,"293.15 K, 50000 kPa",1386.9 ± 1.5 m/s
same,speed of sound,"293.15 K, 60000 kPa",1434.8 ± 1.5 m/s
same,speed of sound,"293.15 K, 70000 kPa",1480.4 ± 1.5 m/s
same,speed of sound,"293.15 K, 80000 kPa",1523.4 ± 1.5 m/s
same,speed of sound,"293.15 K, 90000 kPa",1564 ± 1.5 m/s
same,speed of sound,"293.15 K, 100000 kPa",1602.3 ± 1.5 m/s
same,speed of sound,"293.15 K, 110000 kPa",1638.5 ± 1.5 m/s
same,speed of sound,"293.15 K, 120000 kPa",1674.4 ± 1.5 m/s
same,speed of sound,"293.15 K, 130000 kPa",1708.1 ± 1.6 m/s
same,speed of sound,"293.15 K, 140000 kPa",1740.8 ± 1.6 m/s
same,speed of sound,"293.15 K, 150000 kPa",1771.8 ± 1.6 m/s
same,speed of sound,"303.15 K, 100 kPa",1016.5 ± 1.5 m/s
same,speed of sound,"303.15 K, 10000 kPa",1102.8 ± 1.5 m/s
same,speed of sound,"303.15 K, 20000 kPa",1176 ± 1.5 m/s
same,speed of sound,"303.15 K, 30000 kPa",1240.8 ± 1.5 m/s
same,speed of sound,"303.15 K, 40000 kPa",1299.5 ± 1.5 m/s
same,speed of sound,"303.15 K, 50000 kPa",1352.6 ± 1.5 m/s
same,speed of sound,"303.15 K, 60000 kPa",1403 ± 1.5 m/s
same,speed of sound,"303.15 K, 70000 kPa",1449.6 ± 1.5 m/s
same,speed of sound,"303.15 K, 80000 kPa",1492.9 ± 1.5 m/s
same,speed of sound,"303.15 K, 90000 kPa",1534.6 ± 1.5 m/s
same,speed of sound,"303.15 K, 100000 kPa",1573.5 ± 1.5 m/s
same,speed of sound,"303.15 K, 110000 kPa",1610.7 ± 1.5 m/s
same,speed of sound,"303.15 K, 120000 kPa",1646.9 ± 1.5 m/s
same,speed of sound,"303.15 K, 130000 kPa",1681.6 ± 1.5 m/s
same,speed of sound,"303.15 K, 140000 kPa",1714.3 ± 1.6 m/s
same,speed of sound,"303.15 K, 150000 kPa",1746.6 ± 1.6 m/s
same,speed of sound,"313.15 K, 100 kPa",971.8 ± 1.5 m/s
same,speed of sound,"313.15 K, 10000 kPa",1061.7 ± 1.5 m/s
same,speed of sound,"313.15 K, 20000 kPa",1138.5 ± 1.5 m/s
same,speed of sound,"313.15 K, 30000 kPa",1205.5 ± 1.5 m/s
same,speed of sound,"313.15 K, 40000 kPa",1265.9 ± 1.5 m/s
same,speed of sound,"313.15 K, 50000 kPa",1321.2 ± 1.5 m/s
same,speed of sound,"313.15 K, 60000 kPa",1372.2 ± 1.5 m/s
same,speed of sound,"313.15 K, 70000 kPa",1419.4 ± 1.5 m/s
same,speed of sound,"313.15 K, 80000 kPa",1464 ± 1.5 m/s
same,speed of sound,"313.15 K, 90000 kPa",1506.3 ± 1.5 m/s
same,speed of sound,"313.15 K, 100000 kPa",1546.3 ± 1.5 m/s
same,speed of sound,"313.15 K, 110000 kPa",1584.2 ± 1.5 m/s
same,speed of sound,"313.15 K, 120000 kPa",1620.7 ± 1.5 m/s
same,speed of sound,"313.15 K, 130000 kPa",1655.7 ± 1.5 m/s
same,speed of sound,"313.15 K, 140000 kPa",1689.6 ± 1.5 m/s
same,speed of sound,"313.15 K, 150000 kPa",1721.4 ± 1.6 m/s
same,speed of sound,"323.15 K, 100 kPa",927.3 ± 1.5 m/s
same,speed of sound,"323.15 K, 10000 kPa",1022 ± 1.5 m/s
same,speed of sound,"323.15 K, 20000 kPa",1101.2 ± 1.5 m/s
same,speed of sound,"323.15 K, 30000 kPa",1170.8 ± 1.4 m/s
same,speed of sound,"323.15 K, 40000 kPa",1233.9 ± 1.4 m/s
same,speed of sound,"323.15 K, 50000 kPa",1289.9 ± 1.4 m/s
same,speed of sound,"323.15 K, 60000 kPa",1342.1 ± 1.5 m/s
same,speed of sound,"323.15 K, 70000 kPa",1391.6 ± 1.5 m/s
same,speed of sound,"323.15 K, 80000 kPa",1436 ± 1.5 m/s
same,speed of sound,"323.15 K, 90000 kPa",1478.4 ± 1.5 m/s
same,speed of sound,"323.15 K, 100000 kPa",1519.2 ± 1.5 m/s
same,speed of sound,"323.15 K, 110000 kPa",1558.7 ± 1.5 m/s
same,speed of sound,"323.15 K, 120000 kPa",1595.2 ± 1.5 m/s
same,speed of sound,"323.15 K, 130000 kPa",1630.8 ± 1.5 m/s
same,speed of sound,"323.15 K, 140000 kPa",1664.2 ± 1.5 m/s
same,speed of sound,"323.15 K, 150000 kPa",1696.8 ± 1.5 m/s
same,speed of sound,"333.15 K, 10000 kPa",982.1 ± 1.5 m/s
same,speed of sound,"333.15 K, 20000 kPa",1065.4 ± 1.4 m/s
same,speed of sound,"333.15 K, 30000 kPa",1137.2 ± 1.4 m/s
same,speed of sound,"333.15 K, 40000 kPa",1201.3 ± 1.4 m/s
same,speed of sound,"333.15 K, 50000 kPa",1260.2 ± 1.4 m/s
same,speed of sound,"333.15 K, 60000 kPa",1313.1 ± 1.4 m/s
same,speed of sound,"333.15 K, 70000 kPa",1363.4 ± 1.5 m/s
same,speed of sound,"333.15 K, 80000 kPa",1408.6 ± 1.5 m/s
same,speed of sound,"333.15 K, 90000 kPa",1452.5 ± 1.5 m/s
same,speed of sound,"333.15 K, 100000 kPa",1493.6 ± 1.5 m/s
same,speed of sound,"333.15 K, 110000 kPa",1532.6 ± 1.5 m/s
same,speed of sound,"333.15 K, 120000 kPa",1570 ± 1.5 m/s
same,speed of sound,"333.15 K, 130000 kPa",1605.9 ± 1.5 m/s
same,speed of sound,"333.15 K, 140000 kPa",1640.4 ± 1.5 m/s
same,speed of sound,"333.15 K, 150000 kPa",1673 ± 1.5 m/s
same,speed of sound,"343.15 K, 10000 kPa",943.2 ± 1.4 m/s
same,speed of sound,"343.15 K, 20000 kPa",1030.2 ± 1.4 m/s
same,speed of sound,"343.15 K, 30000 kPa",1104.8 ± 1.4 m/s
same,speed of sound,"343.15 K, 40000 kPa",1170.9 ± 1.4 m/s
same,speed of sound,"343.15 K, 50000 kPa",1230.4 ± 1.4 m/s
same,speed of sound,"343.15 K, 60000 kPa",1284.6 ± 1.4 m/s
same,speed of sound,"343.15 K, 70000 kPa",1335.3 ± 1.4 m/s
same,speed of sound,"343.15 K, 80000 kPa",1381.8 ± 1.4 m/s
same,speed of sound,"343.15 K, 90000 kPa",1426.6 ± 1.5 m/s
same,speed of sound,"343.15 K, 100000 kPa",1468.3 ± 1.5 m/s
same,speed of sound,"343.15 K, 110000 kPa",1508.4 ± 1.5 m/s
same,speed of sound,"343.15 K, 120000 kPa",1546.2 ± 1.5 m/s
same,speed of sound,"343.15 K, 130000 kPa",1582.5 ± 1.5 m/s
same,speed of sound,"343.15 K, 140000 kPa",1617.2 ± 1.5 m/s
same,speed of sound,"343.15 K, 150000 kPa",1650.2 ± 1.5 m/s
same,speed of sound,"353.15 K, 10000 kPa",905 ± 1.4 m/s
same,speed of sound,"353.15 K, 20000 kPa",996.4 ± 1.4 m/s
same,speed of sound,"353.15 K, 30000 kPa",1073.6 ± 1.4 m/s
same,speed of sound,"353.15 K, 40000 kPa",1141 ± 1.4 m/s
same,speed of sound,"353.15 K, 50000 kPa",1201.8 ± 1.4 m/s
same,speed of sound,"353.15 K, 60000 kPa",1257.8 ± 1.4 m/s
same,speed of sound,"353.15 K, 70000 kPa",1309.7 ± 1.4 m/s
same,speed of sound,"353.15 K, 80000 kPa",1356.7 ± 1.4 m/s
same,speed of sound,"353.15 K, 90000 kPa",1402.3 ± 1.4 m/s
same,speed of sound,"353.15 K, 100000 kPa",1444.8 ± 1.4 m/s
same,speed of sound,"353.15 K, 110000 kPa",1485.1 ± 1.5 m/s
same,speed of sound,"353.15 K, 120000 kPa",1523.3 ± 1.5 m/s
same,speed of sound,"353.15 K, 130000 kPa",1560 ± 1.5 m/s
same,speed of sound,"353.15 K, 140000 kPa",1595.2 ± 1.5 m/s
same,speed of sound,"353.15 K, 150000 kPa",1628.8 ± 1.5 m/s
same,speed of sound,"363.15 K, 10000 kPa",867.4 ± 1.4 m/s
same,speed of sound,"363.15 K, 20000 kPa",962.8 ± 1.4 m/s
same,speed of sound,"363.15 K, 30000 kPa",1042.9 ± 1.4 m/s
same,speed of sound,"363.15 K, 40000 kPa",1112.8 ± 1.4 m/s
same,speed of sound,"363.15 K, 50000 kPa",1174.7 ± 1.4 m/s
same,speed of sound,"363.15 K, 60000 kPa",1231.7 ± 1.4 m/s
same,speed of sound,"363.15 K, 70000 kPa",1284.1 ± 1.4 m/s
same,speed of sound,"363.15 K, 80000 kPa",1332.7 ± 1.4 m/s
same,speed of sound,"363.15 K, 90000 kPa",1378.4 ± 1.4 m/s
same,speed of sound,"363.15 K, 100000 kPa",1421.9 ± 1.4 m/s
same,speed of sound,"363.15 K, 110000 kPa",1462.6 ± 1.4 m/s
same,speed of sound,"363.15 K, 120000 kPa",1501.1 ± 1.5 m/s
same,speed of sound,"363.15 K, 130000 kPa",1538.3 ± 1.5 m/s
same,speed of sound,"363.15 K, 140000 kPa",1573.9 ± 1.5 m/s
same,speed of sound,"363.15 K, 150000 kPa",1607.8 ± 1.5 m/s
same,speed of sound,"373.15 K, 10000 kPa",830.7 ± 1.4 m/s
same,speed of sound,"373.15 K, 20000 kPa",931.1 ± 1.4 m/s
same,speed of sound,"373.15 K, 30000 kPa",1013 ± 1.4 m/s
same,speed of sound,"373.15 K, 40000 kPa",1084.6 ± 1.4 m/s
same,speed of sound,"373.15 K, 50000 kPa",1148.2 ± 1.4 m/s
same,speed of sound,"373.15 K, 60000 kPa",1206.3 ± 1.4 m/s
same,speed of sound,"373.15 K, 70000 kPa",1259.6 ± 1.4 m/s
same,speed of sound,"373.15 K, 80000 kPa",1309 ± 1.4 m/s
same,speed of sound,"373.15 K, 90000 kPa",1354.6 ± 1.4 m/s
same,speed of sound,"373.15 K, 100000 kPa",1399 ± 1.4 m/s
same,speed of sound,"373.15 K, 110000 kPa",1440.8 ± 1.4 m/s
same,speed of sound,"373.15 K, 120000 kPa",1479.6 ± 1.5 m/s
same,speed of sound,"373.15 K, 130000 kPa",1517.1 ± 1.5 m/s
same,speed of sound,"373.15 K, 140000 kPa",1553 ± 1.5 m/s
same,speed of sound,"373.15 K, 150000 kPa",1587.5 ± 1.5 m/s
